The text below walks through data of article PMC12736958 (Pharmaceutics, 2025).

Structures are written as SMILES. Where “and” joins values, the source holds several entries; their conditions need not be identical. Identical values can stand only once. A value given as a limit tells only on which side of the number the result lay.

The conditions of data set [1]: cited from earlier work.
A short description of data set [2]: equilibrium solubility of crystalline Cur in excipient solutions. Particulars: pure water, pH 7.0, 37 °C, filtered 0.22 μm, read-out: equilibrium solubility (Cur con.). Format: physicochemical. The method, then:
Excess crystalline Cur was suspended in each solution, vortexed (1 min), sonicated (10 min), and incubated (37 °C, 24 h). After incubation, suspensions were filtered (0.22 μm), and Cur concentration in the filtrate was quantified using HPLC/UV-Vis (HPLC/UV-Vis Method section). All experiments were performed in quadruplicate (n = 4).
Cur content in in vitro dissolution samples was quantified using a Waters 2695 Alliance HPLC system (Waters Corporation, Milford, MA, USA) equipped with a Waters 2998 photodiode array (PDA) detector. Separation was performed on an XBridge® C18 column (4.6 × 250 mm, 5.0 μm; Waters) maintained at 25 °C. The mobile phase, composed of water and methanol (80:20, v/v), was delivered isocratically at a flow rate of 1.0 mL/min. The injection volume was 10 μL, and detection was performed at 430 nm, and Cur eluted at approximately 4.80 min. […] All data were acquired in triplicate (n = 3) and processed using Empower®3 Software (Waters).

Data set [3] can be described thus: in vivo pharmacokinetic study in rats. On the set-up: species or system Sprague-Dawley (SD) rats. The following applies: rat; for plasma concentration of Cur, individual animals: Rat1-Rat5, listed as Intravenous Cur. The method, then: Male Sprague-Dawley (SD) rats (200 ± 20 g) were supplied by SPF Biotechnology Co., Ltd. (Beijing, China) and housed under standard laboratory conditions throughout the study. All animals were housed in a controlled environment (22 ± 2 °C, 55 ± 10% humidity) under a 12/12 h light/dark cycle, with free access to a standard laboratory rodent diet and water. A 12 h fasting period was implemented prior to the experiment, with water permitted ad libitum. All animal procedures were performed in strict accordance with protocols approved by the Biological and Medical Ethics Committee of Minzu University of China.
After fasting for 12 h (with free access to water), SD rats (n = 25) were randomly divided into five groups (n = 5 per group). Group 1: crystalline Cur (i.v., dissolved in saline with 5% DMSO). Group 2: crystalline Cur (p.o., suspended in 0.5% CMC-Na). Group 3: Cur/P188 ASD (1:8, w/w; p.o.). Group 4: Cur/P188/TW80 ASD (1:8:1, w/w/w; p.o.). Group 5: Cur/P188/SLS ASD (1:8:1, w/w/w; p.o.). Group 1 received the formulation via tail vein injection, while Groups 2–5 were suspended in water (pH 7.0) and administered orally by gavage at a Cur-equivalent dose of 40 mg/kg. Blood samples (0.2 mL) were collected from each rat at 4, 7, 10, 20, and 30 min, and 1, 2, 4, and 24 h post-dosing. Plasma was separated by centrifugation (5000 rpm, 5 min, 4 °C) and stored at −80 °C until analysis.
Cur was extracted from 50 μL of plasma using 600 μL of ethyl acetate and quantified by LC-MS/MS, with diclofenac sodium (20 μL, 200 ng/mL) serving as the internal standard. Blank plasma was obtained from a separate control group (n = 5) that received water only. Analysis of these blank samples confirmed the absence of significant matrix interference, thereby validating the analytical method.
Cur quantification in cellular and rat plasma samples was carried out using a SCIEX QTRAP® 5500 LC-MS/MS system coupled with a SCIEX ExionLC^TM AC system (AB SCIEX, Framingham, MA, USA).
Separation was achieved on an Acquity UPLC® BEH C18 column (100 × 2.1 mm, 1.7 μm; Waters) maintained at 40 °C. The mobile phase consisted of (A) 0.1% formic acid in water and (B) acetonitrile (ACN), delivered at a flow rate of 0.14 mL/min with the following gradient program: 10% B (0–1.0 min), increased to 95% B (1.0–9.0 min), and returned to 10% B (9.0–12.0 min). The injection volume was 5 μL. The retention times were approximately 4.85 min for Cur and 6.70 min for diclofenac sodium, used as the internal standard (IS).
Mass spectrometric detection was performed using an IonDrive^TM Turbo V ion (SCIEX, Framingham, MA, USA) source operating in negative electrospray ionization (ESI) mode. Quantification was conducted via multiple reaction monitoring (MRM) at m/z 367.1→133.9 for Cur, and m/z 294.1→250.0 for diclofenac sodium (IS). The assay was linear over the concentration range of 2-500 ng/mL (R^2 > 0.999). All data were acquired in triplicate (n = 3) and processed using MultiQuant software version 3.0.2 (AB SCIEX).
Pharmacokinetic parameters were calculated using non-compartmental analysis with DAS 2.0 software (Boying Corporation, Beijing, China). Data analysis was performed using GraphPad Prism 10.1.2 software. The result is expressed as mean ± standard deviation (SD). For pairwise comparisons between groups, t-tests were conducted. For multiple group comparisons, one-way analysis of variance (ANOVA) was performed, followed by Tukey’s post hoc test for multiple comparisons. Prior to ANOVA, the assumptions of normality and homogeneity of variances were verified using the Shapiro–Wilk test and Bartlett’s test, respectively. p < 0.05 indicates statistically significant differences.

[4] abbreviates: male, Sprague-Dawley, plasma, iv, 40 mg/kg Cur-equivalent.

Consider `COc1cc(/C=C/C(=O)CC(=O)/C=C/c2ccc(O)c(OC)c2)ccc1O` [Curcumin], for which, in data set [1], the logP result was “≈ 3”. Moreover, the solubility thermodynamic at 24 h in data set [2] is < 0.1 µg/mL.
In general, Cmax refers to the maximum level reached in the sampled fluid or tissue. For orientation: Tmax means the time from dosing to the highest level. In general, half-life refers to the time in which the quantity being followed falls by half. As to `COc1cc(/C=C/C(=O)CC(=O)/C=C/c2ccc(O)c(OC)c2)ccc1O` [Solution Cur, Curcumin], the Cmax in data set [3] (setting [4]) stood at 334 ± 9.6 ng/mL. For the same molecule, the Tmax in data set [3] (setting [4]) was determined as 6 min. The half-life in data set [3] (setting [4]) was 1.8 ± 0.2 h. The MRT last in data set [3] (male, Sprague-Dawley, plasma, iv, i.v., 40 mg/kg Cur-equivalent, read-out: MRT(0–24)) was 5.2 ± 0.2 h. Moreover, the concentration at 0.07 h in data set [3] (male, Sprague-Dawley, plasma, iv, 40 mg/kg, i.v., 40 mg/kg, 0.07 h, Rat1-Rat5, read-out: plasma concentration of Cur, individual animals) turned out to be 331 ng/mL. In data set [3] (male, Sprague-Dawley, plasma, iv, 40 mg/kg, i.v., 40 mg/kg, 0.12 h, Rat1-Rat5, read-out: plasma concentration of Cur, individual animals), the concentration at 0.12 h amounted to 261 ng/mL. The concentration at 0.17 h in data set [3] (male, Sprague-Dawley, plasma, iv, 40 mg/kg, i.v., 40 mg/kg, 0.17 h, Rat1-Rat5, read-out: plasma concentration of Cur, individual animals) stood at 220 ng/mL. Also, the concentration at 0.33 h in data set [3] (male, Sprague-Dawley, plasma, iv, 40 mg/kg, i.v., 40 mg/kg, 0.33 h, Rat1-Rat5, read-out: plasma concentration of Cur, individual animals) stood at 181 ng/mL. For the same molecule, the concentration at 0.5 h in data set [3] (male, Sprague-Dawley, plasma, iv, 40 mg/kg, i.v., 40 mg/kg, 0.5 h, Rat1-Rat5, read-out: plasma concentration of Cur, individual animals) was 160 ng/mL. Also, the concentration at 1 h in data set [3] (male, Sprague-Dawley, plasma, iv, 40 mg/kg, i.v., 40 mg/kg, 1 h, Rat1-Rat5, read-out: plasma concentration of Cur, individual animals) stood at 85.2 ng/mL. Further, the concentration at 2 h in data set [3] (male, Sprague-Dawley, plasma, iv, 40 mg/kg, i.v., 40 mg/kg, 2 h, Rat1-Rat5, read-out: plasma concentration of Cur, individual animals) is 50.6 ng/mL. The concentration at 4 h in data set [3] (male, Sprague-Dawley, plasma, iv, 40 mg/kg, i.v., 40 mg/kg, 4 h, Rat1-Rat5, read-out: plasma concentration of Cur, individual animals) amounted to 25.9 ng/mL. Moreover, the concentration at 24 h in data set [3] (male, Sprague-Dawley, plasma, iv, 40 mg/kg, i.v., 40 mg/kg, 24 h, Rat1-Rat5, read-out: plasma concentration of Cur, individual animals) stood at 8.3 ng/mL. Moreover, the “plasma concentration of Cur, individual animals” value in data set [3] (i.v., 40 mg/kg, 0.07 h) was 340.1 ng/mL and 337.1 ng/mL and 323.9 ng/mL and 342.5 ng/mL; in data set [3] (i.v., 40 mg/kg, 0.12 h), 255.2 ng/mL and 257.9 ng/mL and 258.8 ng/mL and 264.3 ng/mL; in data set [3] (i.v., 40 mg/kg, 0.17 h) it was 215.1 ng/mL and 212.7 ng/mL and 219.1 ng/mL and 237.5 ng/mL; in data set [3] (i.v., 40 mg/kg, 0.33 h), 192.4 ng/mL and 207.1 ng/mL and 170.5 ng/mL and 217.7 ng/mL; in data set [3] (i.v., 40 mg/kg, 0.5 h) it was 130.3 ng/mL and 126.5 ng/mL and 120.8 ng/mL and 194.6 ng/mL; in data set [3] (i.v., 40 mg/kg, 1 h), 96.5 ng/mL and 101.5 ng/mL and 102.2 ng/mL and 65.3 ng/mL. Further, the “plasma concentration of Cur, individual animals” value is 63.9 ng/mL and 65.1 ng/mL and 75.3 ng/mL and 40.5 ng/mL in data set [3] (i.v., 40 mg/kg, 2 h); 35.9 ng/mL and 25.7 ng/mL and 32.9 ng/mL and 22.5 ng/mL in data set [3] (i.v., 40 mg/kg, 4 h); 10.2 ng/mL and 9.5 ng/mL and 8.5 ng/mL and 8.7 ng/mL in data set [3] (i.v., 40 mg/kg, 24 h).
